ChEMBL document CHEMBL3826938, “Synthesis and biological evaluation of Oblongifolin C derivatives as c-Met inhibitors” (Bioorg Med Chem, 2016)
Activity calls are given as the source filed them. The calls are words filed in the database; no cut-off is given here.

Tests used:
[1] = biological target: Hepatocyte growth factor receptor (Homo sapiens, UniProt P08581); test: Inhibition of c-MET (unknown origin) by caliper mobility shift assay
[2] = Cytotoxicity against human HCC827 cells assessed as growth inhibition after 72 hrs by MTT assay; settings: HCC827, 72 h
AGS = test: Cytotoxicity against human AGS cells assessed as growth inhibition after 72 hrs by MTT assay
[3] = Cytotoxicity against human MIAPaCa2 cells assessed as growth inhibition after 72 hrs by MTT assay; settings: MIA PaCa-2, 72 h
HeLa = test: Cytotoxicity against human HeLa cells assessed as growth inhibition after 72 hrs by MTT assay
HT-29 = test: Cytotoxicity against human HT-29 cells assessed as growth inhibition after 72 hrs by MTT assay; settings: HT-29, 72 h
HepG2 = test: Cytotoxicity against human HepG2 cells assessed as growth inhibition after 72 hrs by MTT assay; settings: HepG2, 72 h
A549 = test: Cytotoxicity against human A549 cells assessed as growth inhibition after 72 hrs by MTT assay; settings: A549, 72 h
[4] = Solubility of compound in water; type: physicochemical; settings: buffer
HCC827 = test: Antimigratory activity against human HCC827 cells at 2.5 to 10 uM after 24 hrs by crystal violet staining based transwell chamber assay; type: functional, cell-based

Chain of Hepatocyte growth factor receptor (P08581 whole entry): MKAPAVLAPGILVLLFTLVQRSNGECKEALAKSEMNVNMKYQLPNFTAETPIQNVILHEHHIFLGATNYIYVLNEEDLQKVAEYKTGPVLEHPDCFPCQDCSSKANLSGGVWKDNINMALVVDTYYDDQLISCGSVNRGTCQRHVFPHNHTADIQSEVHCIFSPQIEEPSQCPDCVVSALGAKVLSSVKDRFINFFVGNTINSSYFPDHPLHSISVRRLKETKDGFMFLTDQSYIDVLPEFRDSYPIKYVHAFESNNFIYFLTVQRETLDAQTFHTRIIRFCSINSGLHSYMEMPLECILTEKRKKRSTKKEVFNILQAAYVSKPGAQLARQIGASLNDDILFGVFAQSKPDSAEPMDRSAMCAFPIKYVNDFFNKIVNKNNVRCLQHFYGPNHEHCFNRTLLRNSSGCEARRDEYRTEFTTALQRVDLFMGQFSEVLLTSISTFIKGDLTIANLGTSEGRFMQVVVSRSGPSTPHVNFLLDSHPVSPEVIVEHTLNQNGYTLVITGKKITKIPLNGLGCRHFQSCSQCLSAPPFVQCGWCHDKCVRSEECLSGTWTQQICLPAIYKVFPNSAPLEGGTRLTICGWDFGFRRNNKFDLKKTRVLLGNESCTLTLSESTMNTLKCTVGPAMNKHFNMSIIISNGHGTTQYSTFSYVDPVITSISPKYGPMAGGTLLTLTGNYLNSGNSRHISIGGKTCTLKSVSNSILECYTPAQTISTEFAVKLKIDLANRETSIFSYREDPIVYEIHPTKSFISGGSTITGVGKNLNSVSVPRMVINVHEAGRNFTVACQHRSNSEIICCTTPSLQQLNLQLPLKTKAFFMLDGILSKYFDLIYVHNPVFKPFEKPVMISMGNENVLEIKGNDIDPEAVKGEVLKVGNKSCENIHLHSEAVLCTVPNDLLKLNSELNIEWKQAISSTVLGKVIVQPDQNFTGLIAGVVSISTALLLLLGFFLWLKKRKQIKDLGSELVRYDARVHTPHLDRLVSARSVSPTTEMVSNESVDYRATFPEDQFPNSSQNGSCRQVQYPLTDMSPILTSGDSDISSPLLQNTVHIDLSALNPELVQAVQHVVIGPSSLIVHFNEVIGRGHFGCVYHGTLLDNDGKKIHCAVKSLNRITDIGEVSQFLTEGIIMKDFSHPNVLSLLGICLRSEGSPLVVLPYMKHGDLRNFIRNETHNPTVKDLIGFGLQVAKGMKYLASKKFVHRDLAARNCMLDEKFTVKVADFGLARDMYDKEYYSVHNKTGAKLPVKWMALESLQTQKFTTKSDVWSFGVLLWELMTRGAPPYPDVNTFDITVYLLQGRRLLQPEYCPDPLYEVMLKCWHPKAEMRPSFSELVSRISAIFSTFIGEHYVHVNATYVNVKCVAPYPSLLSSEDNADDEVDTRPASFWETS

IC50 [1] [µM]	solubility [4]	Structure (SMILES)	IC50 [2] [µM]	IC50 (AGS) [µM]	IC50 [3] [µM]	IC50 (HeLa) [µM]	IC50 (HT-29) [µM]	IC50 (HepG2) [µM]	IC50 (A549) [µM]	Activity (HCC827)
7.77		CC(C)=CCC/C(C)=C/C[C@@H]1C[C@]2(CC=C(C)C)C(=O)[C@@](CC=C(C)C)(C(=O)C(C(=O)c3ccc(O)c(O)c3)=C2O)[C@@]1(C)CCC=C(C)C [OBLONGIFOLIN C]	9.2	4.58	4.46	5.83	6.74	13	4.29	
		C[C@@H](Oc1cc(-c2cnn(C3CCNCC3)c2)cnc1N)c1c(Cl)ccc(F)c1Cl [CRIZOTINIB]	7.25		7.16			3.7		
	soluble	COC(=O)COc1cc(C(=O)C2=C(O)[C@]3(CC=C(C)C)C[C@@H](C/C=C(\C)CCC=C(C)C)[C@](C)(CCC=C(C)C)[C@](CC=C(C)C)(C2=O)C3=O)ccc1OCC(=O)O	> 20	> 20	> 20	> 20	> 20	> 20	> 20	
		CC(=O)Oc1ccc(C(=O)C2=C(O)[C@]3(CC=C(C)C)C[C@@H](C/C=C(\C)CCC=C(C)C)[C@](C)(CCC=C(C)C)[C@](CC=C(C)C)(C2=O)C3=O)cc1OC(C)=O	> 20	15.7	> 20	13.3	12.2	> 20	16.6	
> 20		CC(C)=CCC/C(C)=C/C[C@@H]1C[C@]2(CC=C(C)C)C(=O)[C@@](CC=C(C)C)(C(=O)C(Cc3ccc(O)c(O)c3)=C2O)[C@@]1(C)CCC=C(C)C	> 20	> 20	> 20	> 20	> 20	> 20	> 20	
	soluble	COC(=O)COc1ccc(C(=O)C2=C(O)[C@]3(CC=C(C)C)C[C@@H](C/C=C(\C)CCC=C(C)C)[C@](C)(CCC=C(C)C)[C@](CC=C(C)C)(C2=O)C3=O)cc1OCC(=O)O	> 20	> 20	> 20	> 20	> 20	> 20	> 20	
	soluble	CC(C)=CCC/C(C)=C/C[C@@H]1C[C@]2(CC=C(C)C)C(=O)[C@@](CC=C(C)C)(C(=O)C(C(=O)c3ccc(OCC(=O)O)c(OCC(=O)O)c3)=C2O)[C@@]1(C)CCC=C(C)C	> 20	> 20	> 20	> 20	> 20	> 20	> 20	
		CC(=O)Oc1cc(C(=O)C2=C(O)[C@]3(CC=C(C)C)C[C@@H](C/C=C(\C)CCC=C(C)C)[C@](C)(CCC=C(C)C)[C@](CC=C(C)C)(C2=O)C3=O)ccc1O	> 20	8.09	15.4	8.97	10.2	> 20	7.66	
		CC(C)=CCC/C(C)=C/C[C@@H]1C[C@]2(CC=C(C)C)C(=O)[C@@](CC=C(C)C)(C(=O)C(OC(=O)c3ccc(O)c(O)c3)=C2O)[C@@]1(C)CCC=C(C)C	> 20	10.2	> 20	15.1	16.3	> 20	13.1	
		CC(C)=CCC/C(C)=C/C[C@@H]1C[C@]2(CC=C(C)C)C(=O)[C@@](CC=C(C)C)(C(=O)C(C(=O)c3ccc(O)c(OC(=O)CCCC[C@@H]4SCC5NC(=O)NC54)c3)=C2O)[C@@]1(C)CCC=C(C)C (some centres not stated)	12.1	12.2	11.7	12.7	18.2	14.6	11.3	
		CC(C)=CCC/C(C)=C/C[C@@H]1C[C@@]2(CC=C(C)C)C(=O)C3=C(OC4C=C(O)C(=O)C=C4C3=O)[C@](CC=C(C)C)(C2=O)[C@@]1(C)CCC=C(C)C (some centres not stated)	4.56	7.72	2.78	6.82	9.22	3.47	9.84	Active
		CC(C)=CCC/C(C)=C/C[C@@H]1C[C@]2(CC=C(C)C)C(=O)[C@@](CC=C(C)C)(C(=O)C3=C2OC2C=C(O)C(=O)C=C2C3=O)[C@@]1(C)CCC=C(C)C (some centres not stated)	> 20	7.84	9.88	10.3	16.9	14.3	13.1	Active
